Reference: ChEMBL document CHEMBL4265930, “Dual potent ALK and ROS1 inhibitors combating drug-resistant mutants: Synthesis and biological evaluation of aminopyridine-containing diarylaminopyrimidine derivatives” (Eur J Med Chem, 2018)
Values belong to the compound of their own block, whether it stands above or below them. Calls of active or inactive are those of the source. The calls are words filed in the database; no cut-off is given here.

Key:
[1] = test system: HCC78; assay: Antiproliferative activity against human HCC78 cells harboring SLC34A2-ROS1 after 72 hrs by MTT assay; assay type: functional, cell-based; conditions: HCC78, 72 h
[2] = target: ALK tyrosine kinase receptor (Homo sapiens, UniProt Q9UM73, L1196M)
Description: Inhibition of human N-terminal GST-tagged ALK L1196M mutant cytoplasmic domain (1058 to 1620 residues) expressed in baculovirus expression system after 1 hr by mobility shift assay

[3] = target: T1, ALK tyrosine kinase receptor (Homo sapiens, UniProt Q9UM73)
Target sequence in this assay (Q9UM73 whole entry): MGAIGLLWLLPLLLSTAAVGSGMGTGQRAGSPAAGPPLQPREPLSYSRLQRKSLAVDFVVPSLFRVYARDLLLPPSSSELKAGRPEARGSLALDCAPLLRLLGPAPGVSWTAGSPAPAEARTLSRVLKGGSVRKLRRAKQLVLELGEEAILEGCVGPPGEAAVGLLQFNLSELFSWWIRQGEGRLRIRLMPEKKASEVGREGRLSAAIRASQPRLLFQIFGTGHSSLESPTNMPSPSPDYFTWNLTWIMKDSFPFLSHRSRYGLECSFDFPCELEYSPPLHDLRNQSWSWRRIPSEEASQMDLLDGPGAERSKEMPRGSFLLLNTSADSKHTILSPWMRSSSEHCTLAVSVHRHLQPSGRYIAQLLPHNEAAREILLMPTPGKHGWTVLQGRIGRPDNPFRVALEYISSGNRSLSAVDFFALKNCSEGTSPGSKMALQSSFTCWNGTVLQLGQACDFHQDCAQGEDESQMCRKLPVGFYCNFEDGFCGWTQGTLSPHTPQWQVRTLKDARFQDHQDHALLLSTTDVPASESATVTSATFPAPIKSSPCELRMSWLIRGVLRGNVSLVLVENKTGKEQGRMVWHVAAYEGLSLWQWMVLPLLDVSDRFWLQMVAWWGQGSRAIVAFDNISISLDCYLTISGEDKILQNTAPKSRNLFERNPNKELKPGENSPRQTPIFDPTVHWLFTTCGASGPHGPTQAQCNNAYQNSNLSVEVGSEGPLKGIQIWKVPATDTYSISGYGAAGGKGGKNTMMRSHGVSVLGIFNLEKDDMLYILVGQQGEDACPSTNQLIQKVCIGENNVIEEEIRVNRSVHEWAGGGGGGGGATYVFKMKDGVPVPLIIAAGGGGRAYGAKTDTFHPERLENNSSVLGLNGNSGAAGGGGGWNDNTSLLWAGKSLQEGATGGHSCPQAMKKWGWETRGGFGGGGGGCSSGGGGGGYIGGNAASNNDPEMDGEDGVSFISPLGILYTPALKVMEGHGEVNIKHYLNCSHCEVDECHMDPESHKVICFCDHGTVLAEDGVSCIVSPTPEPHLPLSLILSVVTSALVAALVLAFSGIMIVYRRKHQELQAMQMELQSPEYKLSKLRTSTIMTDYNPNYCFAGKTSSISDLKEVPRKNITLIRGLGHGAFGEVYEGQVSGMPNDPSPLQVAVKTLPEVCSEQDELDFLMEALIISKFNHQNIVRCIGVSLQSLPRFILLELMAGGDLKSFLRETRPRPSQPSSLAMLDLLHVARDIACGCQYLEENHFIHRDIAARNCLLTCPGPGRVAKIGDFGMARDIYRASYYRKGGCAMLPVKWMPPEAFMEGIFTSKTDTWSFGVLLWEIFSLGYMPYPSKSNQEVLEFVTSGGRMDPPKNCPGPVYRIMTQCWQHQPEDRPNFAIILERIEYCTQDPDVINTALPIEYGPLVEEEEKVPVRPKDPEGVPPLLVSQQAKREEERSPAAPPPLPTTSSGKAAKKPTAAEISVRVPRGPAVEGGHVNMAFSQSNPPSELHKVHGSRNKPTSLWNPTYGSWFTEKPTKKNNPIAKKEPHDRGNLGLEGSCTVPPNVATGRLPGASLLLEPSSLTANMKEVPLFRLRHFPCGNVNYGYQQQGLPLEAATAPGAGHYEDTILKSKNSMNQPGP
Description: Inhibition of human N-terminal GST-tagged ALK cytoplasmic domain (1058 to 1620 residues) expressed in baculovirus expression system after 1 hr by mobility shift assay

[4] = target: ALK tyrosine kinase receptor (Homo sapiens, UniProt Q9UM73, G1202R)
[5] = target: Proto-oncogene tyrosine-protein kinase ROS (Homo sapiens, UniProt P08922); assay: Inhibition of human N-terminal GST-tagged ROS cytoplasmic domain (1883 to 2347 residues) expressed in baculovirus expression system after 1 hr by mobility shift assay
Chain of Proto-oncogene tyrosine-protein kinase ROS (P08922 whole entry, the tested form may be a part): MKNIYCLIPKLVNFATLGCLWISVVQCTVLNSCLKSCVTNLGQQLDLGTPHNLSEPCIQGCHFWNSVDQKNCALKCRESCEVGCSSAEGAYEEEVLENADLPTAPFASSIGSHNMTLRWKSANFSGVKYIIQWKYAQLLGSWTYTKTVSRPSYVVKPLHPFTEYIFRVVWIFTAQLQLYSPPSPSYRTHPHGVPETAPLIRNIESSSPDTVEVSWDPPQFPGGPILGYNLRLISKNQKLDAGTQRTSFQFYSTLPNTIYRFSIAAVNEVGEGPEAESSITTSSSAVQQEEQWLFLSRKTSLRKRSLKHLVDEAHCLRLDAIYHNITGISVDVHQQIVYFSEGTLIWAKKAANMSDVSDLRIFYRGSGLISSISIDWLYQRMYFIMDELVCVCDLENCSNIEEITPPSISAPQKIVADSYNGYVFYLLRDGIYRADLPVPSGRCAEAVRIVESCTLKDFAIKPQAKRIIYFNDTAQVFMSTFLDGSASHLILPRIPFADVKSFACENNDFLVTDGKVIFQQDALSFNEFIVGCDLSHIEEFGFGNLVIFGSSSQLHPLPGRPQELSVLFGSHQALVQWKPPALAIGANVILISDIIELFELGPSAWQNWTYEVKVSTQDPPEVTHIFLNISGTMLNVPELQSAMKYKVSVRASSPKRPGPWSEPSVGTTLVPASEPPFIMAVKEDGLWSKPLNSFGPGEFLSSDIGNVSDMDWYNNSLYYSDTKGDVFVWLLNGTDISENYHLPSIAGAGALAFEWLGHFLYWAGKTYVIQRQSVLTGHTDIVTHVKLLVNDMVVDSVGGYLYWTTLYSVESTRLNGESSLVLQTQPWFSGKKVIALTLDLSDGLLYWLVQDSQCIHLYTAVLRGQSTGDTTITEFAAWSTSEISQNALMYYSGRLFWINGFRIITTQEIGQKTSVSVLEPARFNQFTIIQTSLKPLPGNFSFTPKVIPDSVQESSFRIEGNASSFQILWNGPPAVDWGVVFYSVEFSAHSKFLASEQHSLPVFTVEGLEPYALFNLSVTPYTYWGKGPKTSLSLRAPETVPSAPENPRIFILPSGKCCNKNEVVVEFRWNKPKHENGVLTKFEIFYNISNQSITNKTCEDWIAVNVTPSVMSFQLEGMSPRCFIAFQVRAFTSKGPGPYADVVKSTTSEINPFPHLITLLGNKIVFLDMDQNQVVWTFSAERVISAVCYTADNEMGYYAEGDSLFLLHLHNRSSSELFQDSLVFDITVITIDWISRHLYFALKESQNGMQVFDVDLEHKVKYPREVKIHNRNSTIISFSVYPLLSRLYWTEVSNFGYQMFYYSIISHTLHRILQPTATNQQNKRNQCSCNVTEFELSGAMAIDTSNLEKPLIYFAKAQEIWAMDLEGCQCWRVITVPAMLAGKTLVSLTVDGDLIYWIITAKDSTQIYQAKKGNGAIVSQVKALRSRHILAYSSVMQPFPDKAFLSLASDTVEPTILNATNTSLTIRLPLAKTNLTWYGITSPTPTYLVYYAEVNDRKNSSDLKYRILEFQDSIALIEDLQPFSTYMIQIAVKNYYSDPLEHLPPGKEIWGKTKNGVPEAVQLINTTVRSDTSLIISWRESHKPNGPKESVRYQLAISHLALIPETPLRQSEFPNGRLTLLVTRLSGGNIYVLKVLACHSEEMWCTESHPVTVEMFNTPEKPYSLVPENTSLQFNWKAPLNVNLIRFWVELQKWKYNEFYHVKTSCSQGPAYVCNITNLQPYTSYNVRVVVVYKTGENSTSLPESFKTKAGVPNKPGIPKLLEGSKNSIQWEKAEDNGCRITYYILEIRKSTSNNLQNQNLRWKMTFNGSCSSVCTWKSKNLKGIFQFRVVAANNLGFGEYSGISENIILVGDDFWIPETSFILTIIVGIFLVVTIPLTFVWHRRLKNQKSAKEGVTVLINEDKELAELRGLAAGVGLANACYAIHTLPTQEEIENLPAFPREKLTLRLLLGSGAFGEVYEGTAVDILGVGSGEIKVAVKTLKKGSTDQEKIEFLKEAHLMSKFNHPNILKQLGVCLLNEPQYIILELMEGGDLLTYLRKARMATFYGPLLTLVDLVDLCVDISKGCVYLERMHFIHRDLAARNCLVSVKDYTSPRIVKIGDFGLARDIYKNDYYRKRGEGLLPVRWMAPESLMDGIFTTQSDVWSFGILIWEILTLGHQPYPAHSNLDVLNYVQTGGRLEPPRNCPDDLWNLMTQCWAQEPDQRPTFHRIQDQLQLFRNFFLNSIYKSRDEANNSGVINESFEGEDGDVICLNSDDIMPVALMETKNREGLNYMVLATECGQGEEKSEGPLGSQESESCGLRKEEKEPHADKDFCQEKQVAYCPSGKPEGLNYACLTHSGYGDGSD

[6] = target: Epidermal growth factor receptor (Homo sapiens, UniProt P00533)
Chain of Epidermal growth factor receptor (P00533 whole entry): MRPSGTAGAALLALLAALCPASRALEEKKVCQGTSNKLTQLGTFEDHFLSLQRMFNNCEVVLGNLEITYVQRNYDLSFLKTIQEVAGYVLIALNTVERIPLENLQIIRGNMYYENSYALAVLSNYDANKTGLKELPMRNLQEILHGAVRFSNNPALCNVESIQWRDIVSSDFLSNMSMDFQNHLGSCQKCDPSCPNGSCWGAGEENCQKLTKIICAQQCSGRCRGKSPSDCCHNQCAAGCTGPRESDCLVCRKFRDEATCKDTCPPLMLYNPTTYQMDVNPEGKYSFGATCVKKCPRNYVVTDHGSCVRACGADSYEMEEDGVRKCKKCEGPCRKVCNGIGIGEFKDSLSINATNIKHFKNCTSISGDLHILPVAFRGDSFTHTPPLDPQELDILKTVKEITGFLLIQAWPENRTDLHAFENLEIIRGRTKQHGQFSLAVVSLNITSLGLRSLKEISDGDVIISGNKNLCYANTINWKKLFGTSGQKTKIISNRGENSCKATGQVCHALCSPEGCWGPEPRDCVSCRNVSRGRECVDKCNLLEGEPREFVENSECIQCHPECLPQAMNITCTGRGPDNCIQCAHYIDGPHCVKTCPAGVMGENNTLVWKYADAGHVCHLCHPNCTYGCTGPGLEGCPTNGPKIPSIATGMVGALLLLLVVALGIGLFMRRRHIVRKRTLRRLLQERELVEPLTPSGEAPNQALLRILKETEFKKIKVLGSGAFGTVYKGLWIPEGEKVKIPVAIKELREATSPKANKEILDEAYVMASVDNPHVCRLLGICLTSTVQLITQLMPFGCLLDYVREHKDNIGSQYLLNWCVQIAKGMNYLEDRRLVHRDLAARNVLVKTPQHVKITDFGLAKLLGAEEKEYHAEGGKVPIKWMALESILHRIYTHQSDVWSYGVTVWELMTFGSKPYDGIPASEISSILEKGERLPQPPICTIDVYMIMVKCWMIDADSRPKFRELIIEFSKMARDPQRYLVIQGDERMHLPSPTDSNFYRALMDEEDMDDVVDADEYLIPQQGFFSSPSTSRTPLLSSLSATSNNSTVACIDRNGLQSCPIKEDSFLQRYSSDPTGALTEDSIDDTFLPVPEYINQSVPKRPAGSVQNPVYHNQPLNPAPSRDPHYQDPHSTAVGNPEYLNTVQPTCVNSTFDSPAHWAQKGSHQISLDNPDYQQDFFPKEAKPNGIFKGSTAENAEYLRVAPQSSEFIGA
Description: Inhibition of human N-terminal GST-tagged EGFR cytoplasmic domain (669 to 1210 residues) expressed in baculovirus expression system after 1 hr by mobility shift assay

[7] = test system: NCI-H2228; assay: cells; conditions: Homo sapiens, NCI-H2228, 72 h
Description: Antiproliferative activity against human NCI-H2228 cells harboring EML4-ALK after 72 hrs by MTT assay

[8] = test system: KARPAS-299; assay: cells; conditions: Homo sapiens, KARPAS-299, 72 h
Description: Antiproliferative activity against human KARPAS299 cells harboring NPM-ALK after 72 hrs by MTT assay

[9] = test system: BaF3; assay: cells; conditions: Mus musculus, BaF3, 72 h
[10] = test system: A549; assay: cells; conditions: Homo sapiens, A549, 72 h
Description: Antiproliferative activity against human A549 cells after 72 hrs by MTT assay

[11] = test system: ALK tyrosine kinase receptor (Homo sapiens), Q9UM73 [L1196M]; assay: Potency index, ratio of ceritinib IC50 to compound IC50 for human N-terminal GST-tagged ALK L1196M mutant cytoplasmic domain (1058 to 1620 residues) expressed in baculovirus expression system
[12] = test system: ALK tyrosine kinase receptor (Homo sapiens), Q9UM73 [G1202R]; assay: Potency index, ratio of ceritinib IC50 to compound IC50 for human N-terminal GST-tagged ALK G1202R mutant cytoplasmic domain (1058 to 1620 residues) expressed in baculovirus expression system
[13] = target: T1, ALK tyrosine kinase receptor; assay: Inhibition of ALK phosphorylation in human KARPAS299 cells after 24 hrs by Western blot analysis; assay type: cell-based
[14] = target: T1, ALK tyrosine kinase receptor; assay: Inhibition of ALK in human KARPAS299 cells assessed as decrease in Akt phosphorylation after 24 hrs by Western blot analysis; assay type: cell-based
[15] = target: T1, ALK tyrosine kinase receptor; assay: Inhibition of ALK in human KARPAS299 cells assessed as decrease in STAT3 phosphorylation after 24 hrs by Western blot analysis; assay type: cell-based
[16] = test system: KARPAS-299; assay: Induction of apoptosis in human KARPAS299 cells assessed as late apoptotic cells at 25 to 50 nM after 24 hrs by AO/EB double staining based inverted fluorescence microscopy; assay type: functional, cell-based
[17] = test system: KARPAS-299; assay: Induction of apoptosis in human KARPAS299 cells assessed as early apoptotic cells at 25 to 50 nM after 24 hrs by Hoechst 33258 staining based inverted fluorescence microscopy; assay type: functional, cell-based

Compound: COc1nc(N2CCN(C)CC2)ccc1Nc1ncc(Cl)c(Nc2ccccc2NS(=O)(=O)C2CC2)n1
IC50 [1]: 270 nM
IC50 [2]: 3900 nM
IC50 [3]: 3.9 µM
IC50 [4]: 6 µM
IC50 [5]: 4600 nM
IC50 [6]: > 1 mM
IC50 [7]: 60 nM
IC50 [8]: 28 nM
IC50 [9]: 90 nM
IC50 [10]: > 1000 nM

Compound: CC(C)Oc1nc(N2CCCC2)ccc1Nc1ncc(Cl)c(Nc2ccccc2NS(C)(=O)=O)n1
IC50 [1]: 90 nM
IC50 [7]: 410 nM
IC50 [8]: 310 nM
IC50 [9]: 850 nM
IC50 [10]: 820 nM

Compound: COc1nc(N2CCN(C)CC2)ccc1Nc1ncc(Cl)c(Nc2ccccc2NS(C)(=O)=O)n1
IC50 [1]: 43 nM
IC50 [2]: 1300 nM
IC50 [3]: 2.1 µM
IC50 [4]: 3.9 µM
IC50 [5]: 2300 nM
Ratio IC50 [11]: 11 to 23
Ratio IC50 [12]: 11 to 23
inhibition [13]: Dose-dependent effect
inhibition [14]: Dose-dependent effect
inhibition [15]: Dose-dependent effect
Activity [16]: Active
Activity [17]: Active
IC50 [6]: > 1 mM
IC50 [7]: 12 nM
IC50 [8]: 10 nM
IC50 [9]: 30 nM
IC50 [10]: > 1000 nM

Compound: CC(C)Oc1nc(N2CCN(C)CC2)ccc1Nc1ncc(Cl)c(Nc2ccccc2NS(C)(=O)=O)n1
IC50 [1]: 260 nM
IC50 [2]: 4800 nM
IC50 [3]: 4.2 µM
IC50 [4]: 9.4 µM
IC50 [5]: 2000 nM
IC50 [6]: > 1 mM
IC50 [7]: 46 nM
IC50 [8]: 18 nM
IC50 [9]: 880 nM
IC50 [10]: 880 nM

Compound: COc1nc(N2CC(O)C2)ccc1Nc1ncc(Cl)c(Nc2ccccc2NS(C)(=O)=O)n1
IC50 [1]: 35 nM
IC50 [2]: 2000 nM
IC50 [3]: 1.4 µM
IC50 [4]: 5.2 µM
IC50 [5]: 1600 nM
IC50 [6]: > 1 mM
IC50 [7]: 42 nM
IC50 [8]: 60 nM
IC50 [9]: 32 nM
IC50 [10]: > 1000 nM

Compound: COc1nc(N2CCCC2)ccc1Nc1ncc(Cl)c(Nc2ccccc2NS(=O)(=O)C2CC2)n1
IC50 [1]: 240 nM
IC50 [7]: 410 nM
IC50 [8]: 120 nM
IC50 [9]: > 1000 nM
IC50 [10]: > 1000 nM

Compound: COc1nc(N2CCSCC2)ccc1Nc1ncc(Cl)c(Nc2ccccc2NS(C)(=O)=O)n1
IC50 [1]: 80 nM
IC50 [2]: 1600 nM
IC50 [3]: 2.8 µM
IC50 [4]: 7.9 µM
IC50 [5]: 6100 nM
IC50 [6]: > 1 mM
IC50 [7]: 24 nM
IC50 [8]: 27 nM
IC50 [9]: 50 nM
IC50 [10]: 850 nM

Compound: C/C=C/C(=O)Nc1ccccc1Nc1nc(Nc2ccc(N3CCCC3)nc2OC)ncc1Cl
IC50 [1]: 160 nM
IC50 [7]: 380 nM
IC50 [8]: 220 nM
IC50 [9]: 300 nM
IC50 [10]: > 1000 nM

Compound: CC(C)Sc1nc(N2CCCC2)ccc1Nc1ncc(Cl)c(Nc2ccccc2NS(C)(=O)=O)n1
IC50 [1]: 320 nM
IC50 [7]: 980 nM
IC50 [8]: 750 nM
IC50 [9]: > 1000 nM
IC50 [10]: > 1000 nM

Compound: COc1nc(N2CCN(CCO)CC2)ccc1Nc1ncc(Cl)c(Nc2ccccc2NS(C)(=O)=O)n1
IC50 [1]: 110 nM
IC50 [2]: 2200 nM
IC50 [3]: 3.2 µM
IC50 [4]: 7.8 µM
IC50 [5]: 3400 nM
IC50 [6]: > 1 mM
IC50 [7]: 70 nM
IC50 [8]: 38 nM
IC50 [9]: 90 nM
IC50 [10]: > 1000 nM

Compound: CS(=O)(=O)Nc1ccccc1Nc1nc(Nc2ccc(N3CCCC3)nc2)ncc1Cl
IC50 [1]: 80 nM
IC50 [7]: 480 nM
IC50 [8]: 80 nM
IC50 [9]: 740 nM
IC50 [10]: > 1000 nM

Compound: CCN1CCN(c2ccc(Nc3ncc(Cl)c(Nc4ccccc4NS(C)(=O)=O)n3)c(OC)n2)CC1
IC50 [1]: 740 nM
IC50 [7]: 950 nM
IC50 [8]: 880 nM
IC50 [9]: > 1000 nM
IC50 [10]: > 1000 nM

Compound: CC(C)Sc1nc(N2CCN(C)CC2)ccc1Nc1ncc(Cl)c(Nc2ccccc2NS(C)(=O)=O)n1
IC50 [1]: 130 nM
IC50 [7]: 420 nM
IC50 [8]: 340 nM
IC50 [9]: > 1000 nM
IC50 [10]: > 1000 nM

Compound: CCN(CC)c1ccc(Nc2ncc(Cl)c(Nc3ccccc3NS(=O)(=O)C3CC3)n2)c(OC)n1
IC50 [1]: 260 nM
IC50 [7]: 640 nM
IC50 [8]: 460 nM
IC50 [9]: 120 nM
IC50 [10]: > 1000 nM

Compound: COc1nc(N2CCNC(C)C2)ccc1Nc1ncc(Cl)c(Nc2ccccc2NS(C)(=O)=O)n1 (stereo unspecified)
IC50 [1]: 440 nM
IC50 [7]: 490 nM
IC50 [8]: 390 nM
IC50 [9]: > 1000 nM
IC50 [10]: > 1000 nM

Compound: C/C=C/C(=O)Nc1ccccc1Nc1nc(Nc2ccc(N3CCNC(C)C3)nc2OC)ncc1Cl (stereo unspecified)
IC50 [1]: 920 nM
IC50 [7]: > 1000 nM
IC50 [8]: 580 nM
IC50 [9]: > 1000 nM
IC50 [10]: > 1000 nM

The remaining compounds from weak to strong by IC50 [7], led by results:

IC50 [1]: 210 nM
IC50 [7]: 360 nM
IC50 [8]: 80 nM
IC50 [9]: 230 nM
IC50 [10]: > 1000 nM
Compound: C/C=C/C(=O)Nc1ccccc1Nc1nc(Nc2ccc(N3CCCCC3)nc2OC)ncc1Cl

IC50 [1]: 310 nM
IC50 [7]: 360 nM
IC50 [8]: 60 nM
IC50 [9]: 180 nM
IC50 [10]: > 1000 nM
Compound: CCN(CC)c1ccc(Nc2ncc(Cl)c(Nc3ccccc3NS(C)(=O)=O)n2)c(OC)n1

IC50 [1]: 390 nM
IC50 [7]: 270 nM
IC50 [8]: 480 nM
IC50 [9]: 630 nM
IC50 [10]: > 1000 nM
Compound: COc1nc(N2CCCCC2)ccc1Nc1ncc(Cl)c(Nc2ccccc2NS(=O)(=O)C2CC2)n1

IC50 [1]: 410 nM
IC50 [7]: 270 nM
IC50 [8]: 72 nM
IC50 [9]: 110 nM
IC50 [10]: > 1000 nM
Compound: C/C=C/C(=O)Nc1ccccc1Nc1nc(Nc2ccc(N3CCN(C)CC3)nc2OC)ncc1Cl

IC50 [1]: 240 nM
IC50 [7]: 170 nM
IC50 [8]: 80 nM
IC50 [9]: 130 nM
IC50 [10]: 710 nM
Compound: COc1nc(N2CCCC2)ccc1Nc1ncc(Cl)c(Nc2ccccc2NS(C)(=O)=O)n1

IC50 [1]: 140 nM
IC50 [7]: 160 nM
IC50 [8]: 27 nM
IC50 [9]: 90 nM
IC50 [10]: 700 nM
Compound: COc1nc(N2CCN(C)CC2)ccc1Nc1ncc(Cl)c(Nc2ccccc2NC(C)=O)n1

IC50 [1]: 90 nM
IC50 [7]: 140 nM
IC50 [8]: 60 nM
IC50 [9]: 440 nM
IC50 [10]: > 1000 nM
Compound: CN1CCN(c2ccc(Nc3ncc(Cl)c(Nc4ccccc4NS(=O)(=O)C4CC4)n3)cn2)CC1

IC50 [1]: 190 nM
IC50 [7]: 130 nM
IC50 [8]: 40 nM
IC50 [9]: 330 nM
IC50 [10]: > 1000 nM
Compound: COc1nc(N2CCCCC2)ccc1Nc1ncc(Cl)c(Nc2ccccc2NS(C)(=O)=O)n1

IC50 [1]: 480 nM
IC50 [7]: 90 nM
IC50 [8]: 55 nM
IC50 [9]: 170 nM
IC50 [10]: > 1000 nM
Compound: COc1nc(N2CCOCC2)ccc1Nc1ncc(Cl)c(Nc2ccccc2NS(=O)(=O)C2CC2)n1

IC50 [1]: 70 nM
IC50 [7]: 80 nM
IC50 [8]: 40 nM
IC50 [9]: 780 nM
IC50 [10]: 850 nM
Compound: CN1CCN(c2ccc(Nc3ncc(Cl)c(Nc4ccccc4NS(C)(=O)=O)n3)cn2)CC1

IC50 [1]: 90 nM
IC50 [7]: 50 nM
IC50 [8]: 110 nM
IC50 [9]: 70 nM
IC50 [10]: > 1000 nM
Compound: COc1nc(N2CC(O)C2)ccc1Nc1ncc(Cl)c(Nc2ccccc2NS(=O)(=O)C2CC2)n1

IC50 [7]: 26 nM
IC50 [8]: 41 nM
IC50 [9]: > 1000 nM
IC50 [10]: > 1000 nM
Compound: Cc1cc(Nc2ncc(Cl)c(Nc3ccccc3S(=O)(=O)C(C)C)n2)c(OC(C)C)cc1C1CCNCC1 [CERITINIB]

IC50 [1]: 130 nM
IC50 [7]: 18 nM
IC50 [8]: 35 nM
IC50 [9]: 40 nM
IC50 [10]: > 1000 nM
Compound: COc1nc(N2CCN(CCO)CC2)ccc1Nc1ncc(Cl)c(Nc2ccccc2NS(=O)(=O)C2CC2)n1
